In PubChem BioAssay (NCI):
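Grown in 96-well plates, cells were treated for 48 hours with each compound at five concentrations. Insufficient inhibition: endpoint recorded as highest concentration tested. GI50 is the concentration that inhibits growth by half. TGI denotes the concentration required for complete inhibition of growth.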

How the values were obtained:
Test in all cases: NCI-60 cell line screen, 48 h
[1] = system: OVCAR-5 ovarian
[2] = system: HT29 colon
[3] = system: T-47D breast
[4] = system: HL-60(TB) leukemia
[5] = system: OVCAR-8 ovarian
[6] = system: RXF 393 renal
[7] = system: DU-145 prostate
[8] = system: MOLT-4 leukemia
[9] = system: LOX IMVI melanoma
[10] = system: SK-MEL-2 melanoma
[11] = system: OVCAR-4 ovarian
[12] = system: SNB-19 CNS
[13] = system: SF-539 CNS
[14] = system: RPMI-8226 leukemia
[15] = system: MDA-MB-231 breast
[16] = system: HCT-15 colon
[17] = system: OVCAR-3 ovarian
[18] = system: UACC-62 melanoma
[19] = system: NCI-H23 lung
[20] = system: HOP-92 NSCLC
[21] = system: SNB-75 CNS
[22] = system: A498 renal
[23] = system: UACC-257 melanoma
[24] = system: HS 578T breast
[25] = system: NCI-H226 lung
[26] = system: MALME-3M melanoma
[27] = system: HCT-116 colon
[28] = system: PC-3 prostate
[29] = system: IGROV1 ovarian
[30] = system: SK-MEL-5 melanoma
[31] = system: CCRF-CEM leukemia
[32] = system: SR leukemia
[33] = system: SW-620 colon
[34] = system: SK-OV-3 ovarian
[35] = system: NCI/ADR-RES ovarian
[36] = system: SK-MEL-28 melanoma
[37] = system: TK-10 renal
[38] = system: CAKI-1 renal
[39] = system: 786-0 renal
[40] = system: ACHN renal
[41] = system: SN12C renal
[42] = system: HCC-2998 colon
[43] = system: SF-295 CNS
[44] = system: COLO 205 colon
[45] = system: BT-549 breast
[46] = system: EKVX NSCLC
[47] = system: NCI-H522 lung
[48] = system: KM12 colon
[49] = system: K-562 leukemia
[50] = system: A549 NSCLC
[51] = system: MDA-MB-435
[52] = system: HOP-62 NSCLC
[53] = system: SF-268 CNS
[54] = system: MCF7 breast
[55] = system: U251 CNS
[56] = system: UO-31 renal
[57] = system: NCI-H460 lung

## C#CCN(C)CCCOc1ccc(NCc2ccc(C(=O)NO)cc2)cc1Cl
[1]
  GI50: 2.38 µM
  TGI: 18.4 µM
[2]
  GI50: 2.96 µM
  TGI: 20.5 µM
[3]
  GI50: 1.85 µM
  TGI: 18.7 µM
[4]
  GI50: 1.37 µM
  TGI: 44.4 µM
[5]
  GI50: 1.4 µM
  TGI: > 100 µM
[6]
  GI50: 1.22 µM
  TGI: 3.2 µM
[7]
  GI50: 2.19 µM
  TGI: 14.8 µM
[8]
  GI50: 1.46 µM
  TGI: > 100 µM
[9]
  GI50: 1.76 µM
  TGI: 3.46 µM
[10]
  GI50: 2.77 µM
  TGI: 8.66 µM
[11]
  GI50: 3.4 µM
  TGI: > 100 µM
[12]
  GI50: 3.08 µM
  TGI: 16.8 µM
[13]
  GI50: 2.05 µM
  TGI: 10.3 µM
[14]
  GI50: 1.56 µM
  TGI: 12.3 µM
[15]
  GI50: 2.1 µM
  TGI: 13.6 µM
[16]
  GI50: 0.674 µM
  TGI: 19.4 µM
[17]
  GI50: 2.06 µM
  TGI: 18.2 µM
[18]
  GI50: 1.61 µM
  TGI: 5.27 µM
[19]
  GI50: 2.18 µM
  TGI: 5.83 µM
[20]
  GI50: 1.37 µM
  TGI: 5.92 µM
[21]
  GI50: 2.28 µM
  TGI: 16.6 µM
[22]
  GI50: 1.11 µM
  TGI: 2.75 µM
[23]
  GI50: 1.42 µM
  TGI: 31.1 µM
[24]
  GI50: 1.85 µM
  TGI: 8.63 µM
[25]
  GI50: 2.45 µM
  TGI: 16.9 µM
[26]
  GI50: 1.11 µM
  TGI: 6.9 µM
[27]
  GI50: 1.43 µM
  TGI: 10.9 µM
[28]
  GI50: 1.94 µM
  TGI: 22.8 µM
[29]
  GI50: 1.41 µM
  TGI: 4.47 µM
[30]
  GI50: 1.51 µM
  TGI: 3.41 µM
[31]
  GI50: 0.632 µM
  TGI: > 100 µM
[32]
  GI50: 0.724 µM
  TGI: > 100 µM
[33]
  GI50: 2.18 µM
  TGI: 10.6 µM
[34]
  GI50: 2.01 µM
  TGI: 10.8 µM
[35]
  GI50: 0.738 µM
  TGI: > 100 µM
[36]
  GI50: 2.57 µM
  TGI: 11.5 µM
[37]
  GI50: 1.91 µM
  TGI: 10.1 µM
[38]
  GI50: 2.33 µM
  TGI: 11.7 µM
[39]
  GI50: 3.18 µM
  TGI: 14.3 µM
[40]
  GI50: 2.62 µM
  TGI: 10.5 µM
[41]
  GI50: 2.69 µM
  TGI: 17.4 µM
[42]
  GI50: 2.66 µM
  TGI: 12.3 µM
[43]
  GI50: 1.84 µM
  TGI: 3.8 µM
[44]
  GI50: 2.38 µM
  TGI: 6.92 µM
[45]
  GI50: 2.76 µM
  TGI: 37.3 µM
[46]
  GI50: 3.6 µM
  TGI: 22.5 µM
[47]
  GI50: 1.07 µM
  TGI: 6.51 µM
[48]
  GI50: 2.67 µM
  TGI: 12.6 µM
[49]
  GI50: 2.16 µM
  TGI: > 100 µM
[50]
  GI50: 2.71 µM
  TGI: 15.3 µM
[51]
  GI50: 2.59 µM
  TGI: 12.4 µM
[52]
  GI50: 2.8 µM
  TGI: 16.3 µM
[53]
  GI50: 2.72 µM
  TGI: 22.9 µM
[54]
  GI50: 2.83 µM
  TGI: 21 µM
[55]
  GI50: 2.16 µM
  TGI: 10 µM
[56]
  GI50: 0.5 µM
  TGI: 2.78 µM
[57]
  GI50: 2.08 µM
  TGI: 14.6 µM
